We go through three substances from article PMC11242946, “Inhibition of ACE2–S Protein Interaction by a Short Functional Peptide with a Boomerang Structure” (Molecules, 2024).

Series [1] has as its system Vero E6 cells. Kind of series: Cellular adsorption of FITC-labeled peptide (fluorescence microscopy). The series is classed as cell-based, monkey. Conditions: cells treated solely with FITC. On the procedure: The cellular adsorption behaviors of K5 were examined using FITC-labeled peptide. Vero E6 cells were incubated in 24-well plates in medium containing 100 μM of FITC-labeled peptide for two different durations: 1 min and 1 h. Subsequently, the cells were washed three times using a PBS solution containing heparin, then stained with DAPI for 30 min. Finally, they were fixed using a 4% PFA solution and then observed using an inverted fluorescence microscope manufactured by Zeiss in Oberkochen, Germany. The control group consisted of cells with only functional peptides added or only FITC added.

Another series relates to ACE2. The conditions noted are these: short peptide; ref not given ("It was reported"); cited from earlier work. From the text:
To date, only a small number of drug design studies have focused on the SARS-CoV-2 receptor, with a particular emphasis on ACE2 antagonists. Exogenous proteins have disadvantages such as low efficiency in drug delivery and immunogenicity, whereas small-molecule ligands pose limitations such as challenges for manufacturing and increased toxicity. Thus, direct interception of the amino acids of ACE2 could be a simple and effective method. The length of the ACE2-derived peptide (CSNP1) is 16 amino acids.

The test system of series [2] is Vero E6 cells. Nature of the series: MTT cytotoxicity, Vero E6. The conditions noted are these: 24 h; for cell viability: MTT, % of untreated cells. The series is classed as cell-based, monkey. On the procedure:
(§1) Vero E6 and A549 cells were cultured in DMEM containing 10% FBS and 5% CO2 at 37 degrees centigrade (°C). The medium was renewed once every three days. The cells were passaged when they attained confluence.
(§2) The cytotoxicity of the functional peptide was assessed using the MTT test. The test cells were seeded onto 96-well plates and grown overnight. The functional peptide K5 was introduced at concentrations of 0.1, 1, 10, and 100 μM for a 24 h incubation. MTT was then added, and cells were incubated for an additional 2 h. The medium was removed and replaced with 100 μL of DMSO. A measurement of absorbance was conducted at 492 nm (OD492) using a microplate reader (EnSpire, Cleveland, OH, USA). Cells without treatment were set as blanks, and the results are expressed as a percentage of the untreated cells.

In another series the test system is A549 cells. Nature of the series: MTT cytotoxicity, A549. The series is classed as cell-based, human. The conditions noted are these: 24 h; for cell viability: MTT, % of untreated cells. On the procedure: as §1, §2
The target of series [3] is ACE2–S protein interaction (Vero E6 cells) (Chlorocebus aethiops, UniProt Q1LZX8). Kind of series: Inhibition of S1 protein-ACE2 interaction, flow cytometry, Vero E6. The series is classed as cell-based, monkey. Conditions: K5 1 h pre-incubation, S1 protein 10 μg/mL 1 h. (Flow cytometry measures light scatter and fluorescence of single cells or particles in a stream.)

No end group written: not given here.

For the substance fluorescein isothiocyanate [FITC], the “cellular adsorption (fluorescence), FITC alone” value in the series on Vero E6 cells [1] is “did not exhibit any fluorescence”.
Turning to EDLFYQ [SAPs], in the series with ACE2, the IC50 result is recorded as “at the mM level”.
A word on the cell viability: it is a read-out of living cells in per cent, often relative to untreated cells. In general, inhibition refers to the change of the read-out against control, counted positive when it falls. On to KYPAY [K5, KYPAY], for which the cell viability is given as 108% in the series with Vero E6 cells [2] (0.1 μM); 105% in the series on Vero E6 cells [2] (1 μM); 96% in the series with Vero E6 cells [2] (10 μM); 94% in the series with Vero E6 cells [2] (100 μM); 93% with A549 cells (0.1 μM); 100% in the series with A549 cells (1 μM). The cell viability in the series on A549 cells (10 μM) was 103%; with A549 cells (100 μM), 101%. The “change in cell viability / toxicity” value in the series with Vero E6 cells [2] (0.1-100 μM, physiological pH, Vero E6) is on record as “no discernible change in cell viability”; in the series on A549 cells (0.1-100 μM, physiological pH, A549), “no discernible change in cell viability”. Besides, the MFI reduction in series [3] (FBS, 10 μM) is recorded as 50%. For the same substance, the MFI decrease was 70% in series [3] (FBS, 100 μM) and “approximately 25%” in series [3] (PBS, 1 μM). Besides, the inhibition at 100 µM in series [3] (Vero C1008, PBS, 100 μM, read-out: MFI decrease (inhibition)) was 78%.
